Test results taken from the NIST ThermoML archive (doi:10.1016/j.fluid.2017.12.031).
Where “and” joins values, the source holds several entries; their conditions need not be identical. Equal values may be shown once.

Legend:
[1] = excess molar enthalpy (molar enthalpy of mixing); xn = mol fraction of the nth substance listed; conditions: 101 kPa, Liquid, Flow calorimetry
[2] = 313.15 K; Liquid; Closed cell (Static) method

C=CCCCC [hex-1-ene] + CCCCCO
excess molar enthalpy [kJ/mol], [1]
Conditions | 298.15 K | 313.15 K
x2 = 0 | 0 | 0
x2 = 0.0506 | – | 0.508
x2 = 0.0507 | 0.397 | –
x2 = 0.1005 | – | 0.664
x2 = 0.1006 | 0.498 | –
x2 = 0.152 | – | 0.749
x2 = 0.1522 | 0.56 | –
x2 = 0.2027 | – | 0.802
x2 = 0.203 | 0.598 | –
x2 = 0.2528 | – | 0.816
x2 = 0.2531 | 0.62 | –
x2 = 0.3021 | – | 0.829
x2 = 0.3022 | 0.63 | –
x2 = 0.3526 | – | 0.807
x2 = 0.353 | 0.627 | –
x2 = 0.4026 | – | 0.795
x2 = 0.403 | 0.611 | –
x2 = 0.4519 | – | 0.764
x2 = 0.4523 | 0.579 | –
x2 = 0.5026 | – | 0.718
x2 = 0.503 | 0.54 | –
x2 = 0.5524 | – | 0.666
x2 = 0.5529 | 0.495 | –
x2 = 0.6035 | – | 0.603
x2 = 0.604 | 0.444 | –
x2 = 0.6519 | – | 0.531
x2 = 0.6523 | 0.382 | –
x2 = 0.7019 | 0.325 | 0.457
x2 = 0.7526 | 0.263 | 0.372
x2 = 0.8008 | 0.2 | –
x2 = 0.8025 | – | 0.285
x2 = 0.8482 | 0.146 | –
x2 = 0.8517 | – | 0.211
x2 = 0.9019 | – | 0.132
x2 = 0.902 | 0.0871 | –
x2 = 0.9513 | 0.038 | 0.0581

CCCCCO [pentan-1-ol]
Conditions | vapor or sublimation pressure
[2] | 0.913 kPa and 0.918 kPa

CCCCCO [pentan-1-ol] + C=CCCCC
[1], x1 = 1
Conditions | excess molar enthalpy [kJ/mol]
298.15 K | 0
313.15 K | 0

CCCCCO [pentan-1-ol] + Cc1ccc(C)c(C)c1
[1], x1 = 1
Conditions | excess molar enthalpy [kJ/mol]
298.15 K | 0
313.15 K | 0

CCCC(C)O (stereo not drawn) [pentan-2-ol]
Conditions | vapor or sublimation pressure
[2] | 2.281 kPa and 2.268 kPa

CCCC(C)O (stereo not drawn) [pentan-2-ol] + C=CCCCC
excess molar enthalpy [kJ/mol], [1]
Conditions | 298.15 K | 313.15 K
x1 = 0.05 | – | 0.59
x1 = 0.0503 | 0.489 | –
x1 = 0.0999 | 0.659 | 0.821
x1 = 0.1511 | 0.766 | –
x1 = 0.1512 | – | 0.957
x1 = 0.2015 | 0.845 | –
x1 = 0.2017 | – | 1.06
x1 = 0.2513 | 0.902 | –
x1 = 0.2516 | – | 1.11
x1 = 0.3027 | 0.94 | –
x1 = 0.3028 | – | 1.16
x1 = 0.3512 | 0.963 | –
x1 = 0.3513 | – | 1.18
x1 = 0.4032 | 0.979 | –
x1 = 0.4034 | – | 1.18
x1 = 0.4509 | – | 1.16
x1 = 0.4525 | 0.979 | –
x1 = 0.5014 | – | 1.14
x1 = 0.503 | 0.962 | –
x1 = 0.5513 | – | 1.09
x1 = 0.5529 | 0.928 | –
x1 = 0.6005 | – | 1.04
x1 = 0.6018 | 0.877 | –
x1 = 0.6523 | 0.811 | 0.95
x1 = 0.702 | 0.731 | 0.86
x1 = 0.751 | 0.631 | 0.752
x1 = 0.8004 | 0.514 | –
x1 = 0.8012 | – | 0.623
x1 = 0.85 | 0.391 | –
x1 = 0.8506 | – | 0.48
x1 = 0.9007 | 0.24 | –
x1 = 0.9012 | – | 0.31
x1 = 0.9507 | 0.112 | –
x1 = 0.9509 | – | 0.155
x1 = 1 | 0 | 0

CCCC(C)O (stereo not drawn) [pentan-2-ol] + Cc1ccc(C)c(C)c1
[1], x1 = 1
Conditions | excess molar enthalpy [kJ/mol]
298.15 K | 0
313.15 K | 0
